# According to the supplement of paper PMC10331698:
# ± gives the standard deviation of the averaged measurements.
# Key:
# Experiment in all cases: level (log10 ratio to DMSO vehicle control); higher = higher biomarker level / cell amount than vehicle control
# Settings in all cases: in DMSO
# Perfluoro-1-iodohexane = compound: FC(F)(F)C(F)(F)C(F)(F)C(F)(F)C(F)(F)C(F)(F)I [Perfluoro-1-iodohexane]
# Protocol: (§1)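 BioMAP Diversity Plus panel of 12 human primary cell co-culture systems (3C, 4H, LPS, SAg, BT, BF4T, BE3C, CASM3C, HDF3CGF, KF3CT, MyoF, Mphg). Compounds were added 1 h before stimulation and left for 24 h (MyoF 48 h; BT 72 h for soluble read-outs or 6 d for IgG). Biomarkers were read by ELISA, cytotoxicity by SRB, PBMC viability and proliferation by Alamar Blue. Each well value was divided by the mean of 8 DMSO control wells on the same plate and log10 transformed; duplicate blinded samples were tested at 4 concentrations.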
# Perfluorobutanoic acid = compound: O=C(O)C(F)(F)C(F)(F)C(F)(F)F [Perfluorobutanoic acid]
# Protocol: as §1
# [1] = compound: O=C(O)C(F)(F)OC(F)(F)C(F)(F)OC(F)(F)F [Perfluoro-3,6-dioxaheptanoic acid]
# Protocol: as §1
# [2] = compound: FC(F)(F)C(F)(F)C(F)(F)C(F)(F)C(F)(F)CCI [1-Iodo-1H,1H,2H,2H-perfluoroheptane]
# Protocol: as §1
# [3] = compound: OCCC(F)(F)C(F)(F)C(F)(F)C(F)(F)C(F)(F)C(F)(F)F [6:2 Fluorotelomer alcohol]
# Protocol: as §1
# [4] = compound: OCC(F)(F)OC(F)(F)C(F)(F)OC(F)(F)CO [1H,1H,8H,8H-Perfluoro-3,6-dioxaoctane-1,8-diol]
# Protocol: as §1
# Perfluoropropanoic acid = compound: O=C(O)C(F)(F)C(F)(F)F [Perfluoropropanoic acid]
# Protocol: as §1
Test System,level (log10) (Perfluoro-1-iodohexane; 6700 nM),level (log10) (Perfluoro-1-iodohexane; 20000 nM),level (log10) (Perfluoro-1-iodohexane; 60000 nM),level (log10) (Perfluorobutanoic acid; 6700 nM),level (log10) (Perfluorobutanoic acid; 20000 nM),level (log10) (Perfluorobutanoic acid; 60000 nM),level (log10) ([1]; 6700 nM),level (log10) ([1]; 20000 nM),level (log10) ([1]; 60000 nM),level (log10) ([2]; 6700 nM),level (log10) ([2]; 20000 nM),level (log10) ([2]; 60000 nM),level (log10) ([3]; 6700 nM),level (log10) ([3]; 20000 nM),level (log10) ([4]; 6700 nM),level (log10) ([4]; 20000 nM),level (log10) ([4]; 60000 nM),level (log10) (Perfluoropropanoic acid; 6700 nM),level (log10) (Perfluoropropanoic acid; 20000 nM),level (log10) (Perfluoropropanoic acid; 60000 nM)
HDF3CGF:CD54/ICAM-1,-0.014 ± 0.0099,-0.0225 ± 0.013,-0.0255 ± 0.0078,-0.005 ± 0.016,0.0035 ± 0.00071,0.001 ± 0.0057,0.002 ± 0.0014,-0.003 ± 0.0028,-0.008 ± 0.014,-0.0065 ± 0.013,-0.0215 ± 0.00071,-0.0195 ± 0.0064,-0.01 ± 0.0071,-0.0075 ± 0.0064,0.005 ± 0.0028,-0.0165 ± 0.005,-0.01 ± 0.014,0.007 ± 0.016,0.0065 ± 0.005,-0.0045 ± 0.00071
HDF3CGF:CD106/VCAM-1,-0.027 ± 0.024,-0.032 ± 0.014,-0.405 ± 0.44,-0.008 ± 0.0014,0.0295 ± 0.026,-0.0085 ± 0.015,-0.033 ± 0.024,0.023 ± 0.082,-0.039 ± 0.061,-0.0335 ± 0.019,-0.102 ± 0.033,-0.429 ± 0.011,-0.0175 ± 0.063,-0.0145 ± 0.042,-0.0145 ± 0.011,-0.0145 ± 0.026,0.0115 ± 0.018,-0.0555 ± 0.0035,-0.018 ± 0.0014,0.0175 ± 0.052
HDF3CGF:CXCL8/IL-8,-0.0055 ± 0.0021,-0.002 ± 0.0057,-0.024 ± 0.037,-0.002 ± 0.0014,-0.004 ± 0.0085,0.0015 ± 0.0021,-0.004 ± 0.013,0.0015 ± 0.005,0.0185 ± 0.016,0.001 ± 0.0099,0.011 ± 0.0028,0.0225 ± 0.0064,0.004 ± 0.0028,0.004,0.0115 ± 0.023,0.009 ± 0.024,0.015 ± 0.028,-0.0055 ± 0.0021,0.007 ± 0.011,0.017 ± 0.0057
HDF3CGF:CXCL9/MIG,0 ± 0.0028,-0.021 ± 0.0057,-0.0325 ± 0.018,-0.005 ± 0.021,-0.014 ± 0.0028,0.012 ± 0.024,-0.011 ± 0.014,0.0145 ± 0.0064,-0.02 ± 0.047,-0.0255 ± 0.044,-0.0445 ± 0.0092,-0.149 ± 0.11,-0.0015 ± 0.023,0.001 ± 0.0028,-0.0035 ± 0.015,-0.015 ± 0.037,0.0345 ± 0.067,-0.019 ± 0.0014,-0.01 ± 0.014,-0.0195 ± 0.026
HDF3CGF:CXCL10/IP-10,-0.033 ± 0.014,-0.0435 ± 0.0035,-0.114 ± 0.076,-0.002 ± 0.0057,0.0035 ± 0.005,-0.0025 ± 0.013,0.007 ± 0.011,0.0095 ± 0.0078,-0.0075 ± 0.043,-0.011 ± 0.0099,-0.053 ± 0.0071,-0.11 ± 0.023,-0.009 ± 0.0099,-0.0295 ± 0.0092,0.004 ± 0.0014,-0.0085 ± 0.00071,-0.011 ± 0.021,-0.005 ± 0.0085,-0.001 ± 0.0028,0.02 ± 0.0071
HDF3CGF:CXCL11/I-TAC,-0.0215 ± 0.011,-0.0305 ± 0.016,-0.183 ± 0.15,0.005 ± 0.016,-0.0035 ± 0.011,0.001 ± 0.023,-0.017 ± 0.0057,-0.0035 ± 0.022,-0.0035 ± 0.012,-0.0155 ± 0.00071,-0.027 ± 0.0042,-0.143 ± 0.042,0.002 ± 0.0071,0.0155 ± 0.0035,0.0085 ± 0.00071,0.0055 ± 0.0064,0.014 ± 0.031,-0.0325 ± 0.032,-0.018 ± 0.033,-0.0215 ± 0.057
HDF3CGF:Collagen I,-0.0285 ± 0.026,-0.0365 ± 0.0092,-0.045 ± 0.0071,-0.022 ± 0.025,-0.0105 ± 0.023,0.0175 ± 0.07,0.0055 ± 0.0064,0.049 ± 0.0085,0.069 ± 0.0014,0.003 ± 0.017,0.0055 ± 0.005,-0.093 ± 0.061,-0.036 ± 0.057,-0.0445 ± 0.08,-0.025 ± 0.018,-0.023 ± 0.0042,0.02 ± 0.092,0 ± 0.038,-0.031 ± 0.1,0.0375 ± 0.012
HDF3CGF:Collagen III,-0.0405 ± 0.066,-0.0755 ± 0.0021,-0.178 ± 0.13,-0.014 ± 0.011,-0.004 ± 0.016,0.0135 ± 0.029,0.0025 ± 0.0078,0.0225 ± 0.0035,0.0375 ± 0.022,0.0695 ± 0.026,-0.008 ± 0.12,-0.0595 ± 0.022,0.001 ± 0.038,-0.014 ± 0.021,-0.0035 ± 0.0078,-0.0105 ± 0.0078,0.0165 ± 0.05,-0.01 ± 0.1,-0.0045 ± 0.032,0.048 ± 0.013
HDF3CGF:EGFR,0.016 ± 0.05,0.0115 ± 0.043,-0.035 ± 0.14,-0.004 ± 0.041,-0.0155 ± 0.025,0.012 ± 0.0057,0.033 ± 0.0071,0.031 ± 0.047,0.048 ± 0.054,0.046 ± 0.02,0.059 ± 0.021,0.038 ± 0.031,0.0005 ± 0.012,0.006 ± 0.0099,0.0035 ± 0.013,0.0175 ± 0.025,0.0205 ± 0.054,-0.0215 ± 0.035,-0.0145 ± 0.022,0.0055 ± 0.019
HDF3CGF:M-CSF,0.0155 ± 0.019,0.024 ± 0.0028,-0.021 ± 0.034,0.0025 ± 0.012,0.0055 ± 0.005,0.0035 ± 0.00071,-0.015 ± 0.0099,-0.013 ± 0.0042,-0.0105 ± 0.05,-0.0275 ± 0.053,-0.0415 ± 0.011,-0.198 ± 0.11,-0.009 ± 0.0099,-0.0075 ± 0.0021,-0.0025 ± 0.0078,-0.01 ± 0.0071,0.01 ± 0.0099,0.0065 ± 0.067,-0.042 ± 0.027,-0.0295 ± 0.042
HDF3CGF:MMP-1,0.0065 ± 0.0035,-0.0075 ± 0.029,-0.034 ± 0.017,0.0135 ± 0.0064,0.0095 ± 0.0035,0.021 ± 0.027,-0.009 ± 0.0099,0.0085 ± 0.013,-0.014 ± 0.03,0.0565 ± 0.013,0.078 ± 0.0085,0.089 ± 0.037,-0.0025 ± 0.00071,0.0015 ± 0.00071,-0.0055 ± 0.0092,-0.0115 ± 0.023,-0.006,-0.0065 ± 0.0064,0.0045 ± 0.013,0.0035 ± 0.015
HDF3CGF:PAI-I,0.017 ± 0.011,0.005 ± 0.031,-0.041 ± 0.014,-0.0025 ± 0.029,0.007 ± 0.054,0.018 ± 0.052,-0.0525 ± 0.00071,0.0225 ± 0.037,0.06,0.078 ± 0.02,0.0135 ± 0.0078,0.0355 ± 0.096,-0.013 ± 0.014,-0.004 ± 0.013,-0.013 ± 0.023,-0.017 ± 0.017,-0.0205 ± 0.0092,-0.07 ± 0.1,-0.005 ± 0.12,-0.002 ± 0.04
HDF3CGF:Proliferation 72hr,-0.0315 ± 0.019,-0.028 ± 0.0014,-0.468 ± 0.57,0.01 ± 0.054,0.0145 ± 0.0021,0.0285 ± 0.029,0.0205 ± 0.05,0.055 ± 0.034,0.06 ± 0.0014,-0.058 ± 0.0099,-0.257 ± 0.04,-0.832 ± 0.16,-0.007 ± 0.05,0.0005 ± 0.086,-0.001 ± 0.031,0.0325 ± 0.044,-0.053 ± 0.031,0.006 ± 0.0042,-0.01 ± 0.045,0.0325 ± 0.0078
HDF3CGF:SRB,0.021 ± 0.035,0.0085 ± 0.018,-0.0085 ± 0.067,0.0125 ± 0.0064,-0.007 ± 0.0028,0.002 ± 0.0071,0 ± 0.013,-0.015 ± 0.018,0.0175 ± 0.039,0.0335 ± 0.036,0.0065 ± 0.023,-0.052 ± 0.033,-0.0245 ± 0.073,0.008 ± 0.054,-0.031 ± 0.0057,0.0405 ± 0.033,-0.0505 ± 0.016,-0.003 ± 0.0085,-0.0175 ± 0.011,-0.0335 ± 0.032
